# Laboratory results: ChEMBL document CHEMBL1149579, “N-(5-chloro-2-(hydroxymethyl)-N-alkyl-arylsulfonamides as gamma-secretase inhibitors” (Bioorg Med Chem Lett, 2007)
# Test system: not listed separately
# Test: Protein binding in mouse plasma at 10 ug/mL
# Format: ADME, cell-free
# Settings: read-out: PPB
row,fraction unbound at 10 ug/mL,Compound
1,< 0.01,CCC[C@@H](C)N(c1cc(Cl)ccc1CO)S(=O)(=O)c1ccc(Cl)cc1

# Test system: not listed separately
# Test: Drug level in Tg2576 betaAPP swedish transgenic mouse plasma at 500 umol/kg, sc twice a day for 5 days
# Format: ADME, organism-based
# Settings: not given
row,concentration at 120 h [µM],Compound
1,21,CCC[C@@H](C)N(c1cc(Cl)ccc1CO)S(=O)(=O)c1ccc(Cl)cc1

# Test system: not listed separately
# Test: Protein binding in rat plasma at 10 ug/mL
# Format: ADME, cell-free
# Settings: read-out: PPB
row,fraction unbound at 10 ug/mL,Compound
1,< 0.01,CCC[C@@H](C)N(c1cc(Cl)ccc1CO)S(=O)(=O)c1ccc(Cl)cc1

# Test system: not listed separately
# Test: Drug level in Tg2576 betaAPP swedish transgenic mouse brain at 500 umol/kg, po after 3 hrs
# Format: ADME, organism-based
# Settings: read-out: Drug uptake
row,concentration at 3 h [µM],Compound
1,5.2,CCC[C@@H](C)N(c1cc(Cl)ccc1CO)S(=O)(=O)c1ccc(Cl)cc1

# Test system: Mus musculus
# Test: Decrease in amyloid beta level in Tg2576 betaAPP swedish transgenic mouse brain at 500 umol/kg, po after 3 hrs
# Format: functional
# Design: scale not given: the % may be the effect or the level left
# Settings: not given
row,Compound,Activity [%]
1,CCC[C@@H](C)N(c1cc(Cl)ccc1CO)S(=O)(=O)c1ccc(Cl)cc1,25

# Biological target: Gamma-secretase
# Test: Inhibition of gamma secretase-mediated beta-APP cleavage in human H4 cells assessed by measuring Abeta40 production by ELISA
# Format: cell-based
# Settings: not given
row,Compound,IC50 [nM]
1,CCN(c1cc(Cl)ccc1CO)S(=O)(=O)c1ccc(Cl)cc1,13
2,CC(CCF)N(c1cc(Cl)ccc1CO)S(=O)(=O)c1ccc(Cl)cc1 (centres undefined),25
3,CCCC(C)N(c1cc(Cl)ccc1CO)S(=O)(=O)c1ccc(F)cc1 (centres undefined),66
4,CCCC(C)N(c1cc(Cl)ccc1CO)S(=O)(=O)c1ccc(C(F)(F)F)cc1 (centres undefined),72
5,CCCC(C)N(c1cc(Cl)ccc1CO)S(=O)(=O)c1ccc(C#N)cc1 (centres undefined),180
6,CCCC(C)N(c1cc(Cl)ccc1CO)S(=O)(=O)c1ccc(Cl)c(Cl)c1 (centres undefined),240
7,CCCC(C)N(c1cc(Cl)ccc1CO)S(=O)(=O)c1ccc(Cl)cc1Cl (centres undefined),560
8,CC(c1ccc(Cl)cc1)N(c1cc(Cl)ccc1CO)S(=O)(=O)c1ccc(Cl)cc1 (centres undefined),22
9,CCCN(c1cc(Cl)ccc1CO)S(=O)(=O)c1ccc(C)cc1,750
10,CCCCN(c1cc(Cl)ccc1CO)S(=O)(=O)c1ccc(C)cc1,1300
11,Cc1ccc(S(=O)(=O)N(CC(C)C)c2cc(Cl)ccc2CO)cc1,700
12,Cc1ccc(S(=O)(=O)N(CCC(C)(C)C)c2cc(Cl)ccc2CO)cc1,2000
13,CCCC(C)N(c1cc(Cl)ccc1CO)S(=O)(=O)c1ccc(C)cc1 (centres undefined),40
14,CCCC(C)N(c1cc(Cl)ccc1CO)S(=O)(=O)c1ccccc1 (centres undefined),1200
15,CC(Cc1ccccc1)N(c1cc(Cl)ccc1CO)S(=O)(=O)c1ccc(Cl)cc1 (centres undefined),41
16,CC(C1CCC1)N(c1cc(Cl)ccc1CO)S(=O)(=O)c1ccc(Cl)cc1 (centres undefined),12
17,CC(C1CCCC1)N(c1cc(Cl)ccc1CO)S(=O)(=O)c1ccc(Cl)cc1 (centres undefined),14
18,C/C=C/C(C)N(c1cc(Cl)ccc1CO)S(=O)(=O)c1ccc(Cl)cc1 (centres undefined),140
19,CC[C@@H](C)N(c1cc(Cl)ccc1CO)S(=O)(=O)c1ccc(C)cc1,100
20,C[C@H](CCc1ccccc1)N(c1cc(Cl)ccc1CO)S(=O)(=O)c1ccc(Cl)cc1,4
21,CCCC[C@@H](C)N(c1cc(Cl)ccc1CO)S(=O)(=O)c1ccc(Cl)cc1,5
22,CCC[C@@H](C)N(c1cc(Cl)ccc1CO)S(=O)(=O)c1ccc(C)cc1,24
23,CCCC(C)N(c1cc(Cl)ccc1CO)S(=O)(=O)c1c(Cl)cc(Cl)cc1Cl (centres undefined),> 25000
24,CC(C1CCCCC1)N(c1cc(Cl)ccc1CO)S(=O)(=O)c1ccc(Cl)cc1 (centres undefined),33
25,Cc1ccc(S(=O)(=O)N(CC2CCCCC2)c2cc(Cl)ccc2CO)cc1,1000
26,CCCC(C)N(c1cc(Cl)ccc1CO)S(=O)(=O)c1ccc(OC)cc1 (centres undefined),1300
27,CC(CCCF)N(c1cc(Cl)ccc1CO)S(=O)(=O)c1ccc(Cl)cc1 (centres undefined),7
28,CCN(c1cc(Cl)ccc1CO)S(=O)(=O)c1ccc(C)cc1,1100
29,C=C(C)CN(c1cc(Cl)ccc1CO)S(=O)(=O)c1ccc(C)cc1,400
30,CCCC(C)N(c1cc(Cl)ccc1CO)S(=O)(=O)c1ccc(Br)cc1 (centres undefined),56

# Second part, the compound after the results:
row,IC50 [nM],Compound
1,19,CCCC(C)N(c1cc(Cl)ccc1CO)S(=O)(=O)c1ccc(Cl)cc1 (centres undefined)
2,49,CC(C1CC1)N(c1cc(Cl)ccc1CO)S(=O)(=O)c1ccc(Cl)cc1 (centres undefined)
3,350,Cc1ccc(S(=O)(=O)N(c2cc(Cl)ccc2CO)C(C)CC(C)(C)C)cc1 (centres undefined)
4,190,Cc1ccc(S(=O)(=O)N(c2cc(Cl)ccc2CO)C(C)C2CCCCC2)cc1 (centres undefined)
5,1000,CCC(CC)N(c1cc(Cl)ccc1CO)S(=O)(=O)c1ccc(C)cc1
6,720,CCCC(C)N(c1cc(Cl)ccc1CO)S(=O)(=O)c1ccc(C(C)C)cc1 (centres undefined)
7,1300,CC[C@H](C)N(c1cc(Cl)ccc1CO)S(=O)(=O)c1ccc(C)cc1
8,3700,CCC[C@H](C)N(c1cc(Cl)ccc1CO)S(=O)(=O)c1ccc(C)cc1
9,14,C=CC[C@@H](C)N(c1cc(Cl)ccc1CO)S(=O)(=O)c1ccc(Cl)cc1
10,100,CC(c1ccc2ccccc2c1)N(c1cc(Cl)ccc1CO)S(=O)(=O)c1ccc(Cl)cc1 (centres undefined)
11,140,CCCCN(c1cc(Cl)ccc1CO)S(=O)(=O)c1ccc(Cl)cc1
12,23,CC(C)CC(C)N(c1cc(Cl)ccc1CO)S(=O)(=O)c1ccc(Cl)cc1 (centres undefined)
13,360,CCCC(C)N(c1cc(Cl)ccc1CO)S(=O)(=O)c1ccc(CC)cc1 (centres undefined)
14,920,Cc1ccc(S(=O)(=O)N(CCCC(C)C)c2cc(Cl)ccc2CO)cc1
15,1200,CCCC(C)N(c1cc(Cl)ccc1CO)S(=O)(=O)c1cccc(C)c1 (centres undefined)

# Test system: not listed separately
# Test: Drug level in Tg2576 betaAPP swedish transgenic mouse brain at 500 umol/kg, sc twice a day for 5 days
# Format: ADME, organism-based
# Settings: read-out: Drug uptake
row,concentration at 120 h [µM],Compound
1,14,CCC[C@@H](C)N(c1cc(Cl)ccc1CO)S(=O)(=O)c1ccc(Cl)cc1

# Test system: Mus musculus
# Test: Decrease in amyloid beta level in Tg2576 betaAPP swedish transgenic mouse brain at 500 umol/kg, sc twice a day for 5 days
# Format: functional
# Design: scale not given: the % may be the effect or the level left
# Settings: not given
row,Compound,Activity [%]
1,CCC[C@@H](C)N(c1cc(Cl)ccc1CO)S(=O)(=O)c1ccc(Cl)cc1,38

# Test system: not listed separately
# Test: Drug level in Tg2576 betaAPP swedish transgenic mouse plasma at 500 umol/kg, po after 3 hrs
# Format: ADME, organism-based
# Settings: not given
row,concentration at 3 h [µM],Compound
1,1.6,CCC[C@@H](C)N(c1cc(Cl)ccc1CO)S(=O)(=O)c1ccc(Cl)cc1

# Test system: not listed separately
# Test: Protein binding in human plasma at 10 ug/mL
# Format: ADME, cell-free
# Settings: read-out: PPB
row,fraction unbound at 10 ug/mL,Compound
1,< 0.01,CCC[C@@H](C)N(c1cc(Cl)ccc1CO)S(=O)(=O)c1ccc(Cl)cc1
